Test results as given in US10273222B2 (CELGENE QUANTICEL RESEARCH, INC., priority 2013, dated 2019).
pIC50: −log10 of the molar value.

Tests used:
Jarid1B = Jarid1B (Homo sapiens (Human), UniProt Q9UGL1); assay: Jarid1B in vitro enzyme inhibition assay (TR-FRET); type: biochemical
Description: This assay determines the ability of a test compound to inhibit Jarid1A, Jarid1B, JMJD2C, and JMJD2A demethylase activity.
The ability of test compounds to inhibit the activity of Jarid1B was determined in 384-well plate format under the following reaction conditions: 0.8 nM Jarid1B, 300 nM H3K4me3-biotin labeled peptide (Anaspec cat #64357), 2 μM alpha-ketoglutaric acid in assay buffer of 50 mM HEPES, pH7.3, 0.005% Brij35, 0.5 mM TCEP, 0.2 mg/ml BSA, 50 μM sodium L-ascorbate, and 2 μM ammonium iron(II) sulfate. Reaction product was determined quantitatively by TR-FRET after the addition of detection reagent Phycolink Streptavidin-allophycocyanin (Prozyme) and Europium-anti-mono- or di-methylated histone H3 lysine 4 (H3K4me1-2) antibody (PerkinElmer) in the presence of 5 mM EDTA in LANCE detection buffer (PerkinElmer) at a final concentration of 25 nM and 1 nM, respectively.
The assay reaction was initiated by the following: 2 μl of the mixture of 900 nM H3K4me3-biotin labeled peptide and 6 μM alpha-ketoglutaric acid with 2 μl of 11-point serial diluted inhibitor in 3% DMSO was added to each well of the plate, followed by the addition of 2 μl of 2.4 nM Jarid1B to initiate the reaction. The reaction mixture was incubated at room temperature for 30 minutes, and terminated by the addition of 6 μl of 5 mM EDTA in LANCE detection buffer containing 50 nM Phycolink Streptavidin-allophycocyanin and 2 nM Europium-anti-H3K4me1-2 antibody. Plates were read by EnVisionMultilabel Reader in TR-FRET mode (excitation at 320 nm, emission at 615 nm and 665 nm) after 1 hour incubation at room temperature. A ratio was calculated (665/615) for each well and fitted to determine inhibition constant (IC50).

FBXL10 = FBXL10 (Homo sapiens (Human), UniProt Q8NHM5); assay: FBXL10 in vitro enzyme inhibition assay (AlphaScreen); type: biochemical
In short: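 AlphaScreen read-out of H3K36me1 product, detected with anti-H3K36me1 antibody plus streptavidin donor and Protein A acceptor beads (final 10 μg/ml) in 50 mM HEPES pH 7.3, 10 mM NaCl, 0.005% Brij35, 5 mM EDTA, 2 mg/ml BSA. Beads incubated 2 h to overnight at room temperature; IC50 derived from AlphaScreen signal.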

JMJD2C = JMJD2C (Homo sapiens (Human), UniProt Q9H3R0); assay: JMJD2C in vitro enzyme inhibition assay (TR-FRET); type: biochemical
Sequence of JMJD2C (Q9H3R0 2-372): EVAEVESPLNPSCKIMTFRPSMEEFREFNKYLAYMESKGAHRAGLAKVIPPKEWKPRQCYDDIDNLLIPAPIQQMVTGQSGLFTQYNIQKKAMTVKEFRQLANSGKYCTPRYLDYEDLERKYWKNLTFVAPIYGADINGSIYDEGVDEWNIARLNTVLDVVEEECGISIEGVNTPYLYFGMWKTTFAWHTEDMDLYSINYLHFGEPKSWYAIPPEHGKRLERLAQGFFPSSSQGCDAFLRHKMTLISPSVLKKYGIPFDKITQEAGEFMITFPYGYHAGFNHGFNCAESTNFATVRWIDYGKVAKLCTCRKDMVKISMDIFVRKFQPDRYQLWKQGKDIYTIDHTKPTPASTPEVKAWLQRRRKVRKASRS

KDM5A and KDM5B = assay: In vitro cell-based assay: tri-methyl H3K4 immuno-blotting in ZR-75-1 cells (cellular inhibition of KDM5A/B); details: ZR-75-1 breast cancer cells, 72 hours, tri-methylated H3K4 level; read-out: IC50 ZR-75-1 cell-MOA
Description: This quantitative immuno-blotting assay measures the amount tri-methylated histone H3 at amino acid Lysine number 4, a specific substrate and product of the direct enzymatic activity of the histone demethylases KDM5A and KDM5B from extracts of the ZR-75-1 breast cancer cell line.
This assay is a fluorometric immunoassay for the quantification of tri-methyl H3K4 extracted from cells treated with test compound and is used as a measure of the cellular inhibition of KDM5A/B.
Extracts were prepared containing all of the cellular histone material using detergent based lysis and sonication methods. These lysates were subsequently normalized for total protein content using a colorimetric bicinchonic acid assay (MicroBCA Pierce/Thermo Scientific). Normalized cell extracts were then subjected to typical immuno-blotting procedures using NuPage reagents (Life Technologies). Electrophoretically separated histones were then transferred and immobilized using polyvinylidene difluoride membrane (Immobilon-FL Millipore). The amount of tri-methylated lysine 4 of histone H3 was detected using an antibody specific to the tri-methylated state (Cell Signaling Technologies) and quantified on an infrared imager using a densitometry software package (Odyssey CLx, Image Studio, Li-Cor). This background subtracted densitometry value was reported as a ration of the GAPDH amount for that sample and then calculated as a percent of the DMSO treated sample. The software package XL-fit (IDBS) was then used to calculate a relative IC50 value for the dilution series of a given test compound according to the equation: fit=(D+((Vmax*(x^n))/((x^n)+(Km^n)))).

Jarid1A = Jarid1A (Homo sapiens (Human), UniProt P29375); assay: Jarid1A in vitro enzyme inhibition assay (TR-FRET); type: biochemical
Sequence of Jarid1A (P29375 1-1090): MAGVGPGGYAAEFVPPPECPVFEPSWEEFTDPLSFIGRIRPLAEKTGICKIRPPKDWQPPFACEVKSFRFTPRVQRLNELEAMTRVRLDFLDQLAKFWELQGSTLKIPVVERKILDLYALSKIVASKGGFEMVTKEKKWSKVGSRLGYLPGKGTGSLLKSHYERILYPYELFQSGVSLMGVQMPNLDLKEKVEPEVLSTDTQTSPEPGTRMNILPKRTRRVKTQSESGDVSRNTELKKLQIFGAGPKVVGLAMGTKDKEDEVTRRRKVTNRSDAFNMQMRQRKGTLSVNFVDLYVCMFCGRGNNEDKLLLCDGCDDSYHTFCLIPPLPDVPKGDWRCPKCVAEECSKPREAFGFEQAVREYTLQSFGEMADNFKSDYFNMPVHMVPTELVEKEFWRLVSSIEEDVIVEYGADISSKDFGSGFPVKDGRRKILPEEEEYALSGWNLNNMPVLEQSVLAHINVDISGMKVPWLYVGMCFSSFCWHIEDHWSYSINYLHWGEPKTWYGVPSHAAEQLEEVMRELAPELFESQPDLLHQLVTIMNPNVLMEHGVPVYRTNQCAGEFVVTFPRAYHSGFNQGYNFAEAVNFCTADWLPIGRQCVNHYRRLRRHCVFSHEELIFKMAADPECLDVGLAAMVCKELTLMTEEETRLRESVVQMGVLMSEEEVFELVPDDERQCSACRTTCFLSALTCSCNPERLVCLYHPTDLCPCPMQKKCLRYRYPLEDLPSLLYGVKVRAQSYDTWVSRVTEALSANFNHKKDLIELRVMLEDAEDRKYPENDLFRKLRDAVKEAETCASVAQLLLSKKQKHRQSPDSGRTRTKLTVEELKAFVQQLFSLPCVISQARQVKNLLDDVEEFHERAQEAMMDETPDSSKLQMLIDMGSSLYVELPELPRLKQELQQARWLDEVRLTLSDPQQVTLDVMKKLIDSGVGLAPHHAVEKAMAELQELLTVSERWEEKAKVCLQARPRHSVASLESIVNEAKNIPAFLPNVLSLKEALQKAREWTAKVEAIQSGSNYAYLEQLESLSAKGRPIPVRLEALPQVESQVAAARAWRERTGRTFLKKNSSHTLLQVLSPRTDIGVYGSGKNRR
Source text: The enzymatic assay of Jarid1A activity is based upon Time Resolved-Fluorescence Resonance Energy Transfer (TR-FRET) detection.

JMJD2A = JMJD2A (Homo sapiens (Human), UniProt O75164); assay: JMJD2A in vitro enzyme inhibition assay (TR-FRET); type: biochemical
Sequence of JMJD2A (O75164 1-350): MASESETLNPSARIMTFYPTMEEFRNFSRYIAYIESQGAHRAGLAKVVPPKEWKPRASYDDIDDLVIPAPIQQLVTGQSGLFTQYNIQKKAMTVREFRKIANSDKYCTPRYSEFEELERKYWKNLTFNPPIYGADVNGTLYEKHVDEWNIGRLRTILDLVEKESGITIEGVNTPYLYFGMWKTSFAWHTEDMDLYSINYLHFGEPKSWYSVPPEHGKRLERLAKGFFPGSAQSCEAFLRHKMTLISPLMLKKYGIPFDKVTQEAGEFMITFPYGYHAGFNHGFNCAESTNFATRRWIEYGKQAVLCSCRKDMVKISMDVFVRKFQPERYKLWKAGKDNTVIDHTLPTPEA
Description: This assay determines the ability of a test compound to inhibit Jarid1A, Jarid1B, JMJD2C, and JMJD2A demethylase activity. […] Baculovirus expressed JMJD2A (GenBank Accession #NM_014663, AA 1-350) was purchased from BPS Bioscience (Cat#50123).
The ability of test compounds to inhibit the activity of JMJD2A was determined in 384-well plate format under the following reaction conditions: 2 nM JMJD2A, 300 nM H3K9me3-biotin labeled peptide (Anaspec cat #64360), 2 μM alpha-ketoglutaric acid in assay buffer of 50 mM HEPES, pH7.3, 0.005% Brij35, 0.5 mM TCEP, 0.2 mg/ml BSA, 50 μM sodium L-ascorbate, and 2 μM ammonium iron(II) sulfate. Reaction product was determined quantitatively by TR-FRET after the addition of detection reagent Phycolink Streptavidin-allophycocyanin (Prozyme) and Europium-anti-di-methylated histone H3 lysine 9 (H3K9me2) antibody (PerkinElmer) in the presence of 5 mM EDTA in LANCE detection buffer (PerkinElmer) at a final concentration of 50 nM and 1 nM, respectively.
The assay reaction was initiated by the following: 2 μl of the mixture of 900 nM H3K9me3-biotin labeled peptide and 6 μM alpha-ketoglutaric acid with 2 μl of 11-point serial diluted inhibitor in 3% DMSO were added to each well of plate, followed by the addition of 2 μl of 6 nM JMJD2A to initiate the reaction. The reaction mixture was incubated at room temperature for 30 minutes, and terminated by the addition of 6 μl of 5 mM EDTA in LANCE detection buffer containing 100 nM Phycolink Streptavidin-allophycocyanin and 2 nM Europium-anti-H3K9me2 antibody. Plates were read by EnVisionMultilabel Reader in TR-FRET mode (excitation at 320 nm, emission at 615 nm and 665 nm) after 1 hour incubation at room temperature. A ratio was calculated (665/615) for each well and fitted to determine inhibition constant (IC50).

Sequence of Jarid1B (Q9UGL1 2-751): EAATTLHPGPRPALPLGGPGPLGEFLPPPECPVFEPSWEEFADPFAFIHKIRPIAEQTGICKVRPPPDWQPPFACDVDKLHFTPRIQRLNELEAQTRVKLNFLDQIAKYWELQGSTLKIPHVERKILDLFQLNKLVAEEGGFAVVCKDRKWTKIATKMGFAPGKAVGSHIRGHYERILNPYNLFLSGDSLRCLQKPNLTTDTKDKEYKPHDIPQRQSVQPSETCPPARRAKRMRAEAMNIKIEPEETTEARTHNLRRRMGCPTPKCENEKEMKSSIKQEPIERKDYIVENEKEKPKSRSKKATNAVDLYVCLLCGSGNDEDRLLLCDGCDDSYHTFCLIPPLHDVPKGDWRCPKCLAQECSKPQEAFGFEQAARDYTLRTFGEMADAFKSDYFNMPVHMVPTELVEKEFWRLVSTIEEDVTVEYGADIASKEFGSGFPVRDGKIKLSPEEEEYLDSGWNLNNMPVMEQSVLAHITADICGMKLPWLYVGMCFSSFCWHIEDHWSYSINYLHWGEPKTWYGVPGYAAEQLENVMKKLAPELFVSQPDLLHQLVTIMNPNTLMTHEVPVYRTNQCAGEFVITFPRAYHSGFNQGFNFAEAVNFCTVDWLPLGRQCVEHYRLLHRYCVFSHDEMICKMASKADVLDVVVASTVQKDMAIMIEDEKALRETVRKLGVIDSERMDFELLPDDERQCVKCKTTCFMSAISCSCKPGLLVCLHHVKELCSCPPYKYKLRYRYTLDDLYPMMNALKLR
Sequence of FBXL10 (Q8NHM5 1-650): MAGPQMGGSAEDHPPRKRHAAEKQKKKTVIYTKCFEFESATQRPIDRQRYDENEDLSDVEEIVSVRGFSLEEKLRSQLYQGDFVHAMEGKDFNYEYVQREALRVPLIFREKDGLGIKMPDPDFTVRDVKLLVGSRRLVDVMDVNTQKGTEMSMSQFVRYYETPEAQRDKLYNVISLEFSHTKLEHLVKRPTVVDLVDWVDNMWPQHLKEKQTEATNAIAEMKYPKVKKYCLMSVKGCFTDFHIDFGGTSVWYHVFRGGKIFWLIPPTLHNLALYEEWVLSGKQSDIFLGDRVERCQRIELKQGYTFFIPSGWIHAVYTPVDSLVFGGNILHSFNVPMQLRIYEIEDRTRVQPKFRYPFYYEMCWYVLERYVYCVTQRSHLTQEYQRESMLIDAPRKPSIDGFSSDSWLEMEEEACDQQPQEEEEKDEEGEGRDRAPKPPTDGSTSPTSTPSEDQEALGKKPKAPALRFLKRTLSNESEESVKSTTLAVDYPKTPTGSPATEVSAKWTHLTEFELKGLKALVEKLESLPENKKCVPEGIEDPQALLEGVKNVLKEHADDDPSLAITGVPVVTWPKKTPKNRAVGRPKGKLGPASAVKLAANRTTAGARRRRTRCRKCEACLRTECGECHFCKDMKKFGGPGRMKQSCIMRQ

Row | Compound | pIC50 (Jarid1B) | pIC50 (FBXL10) | pIC50 (JMJD2C) | pIC50 (KDM5A and KDM5B) | pIC50 (Jarid1A) | pIC50 (JMJD2A)
1 | Cn1cnc(-c2cc(C(=O)O)ccn2)c1-c1ccc(Cl)c(F)c1 [Example 29, 2-[5-(4-chloro-3-fluorophenyl)-1-methyl-1H-imidazol-4-yl]pyridine-4-carboxylic acid] | ≥ 7.00 | ≥ 7.00 | 6.00 to 7.00 | < 5.00 | ≥ 7.00 | –
2 | CCCn1cnc(-c2cc(C(=O)O)ccn2)c1 [Example 41, 2-(1-propyl-1H-imidazol-4-yl)pyridine-4-carboxylic acid] | ≥ 7.00 | ≥ 7.00 | ≥ 7.00 | 5.00 to 6.00 | ≥ 7.00 | –
3 | Cn1cnc(-c2cc(C(=O)O)ccn2)c1-c1ccc(OCC2CC2)cc1 [Example 16, 2-{5-[4-(cyclopropylmethoxy)phenyl]-1-methyl-1H-imidazol-4-yl}pyridine-4-carboxylic acid] | ≥ 7.00 | 6.00 to 7.00 | 6.00 to 7.00 | 5.00 to 6.00 | ≥ 7.00 | –
4 | CN(CCn1cnc(-c2cc(C(=O)O)ccn2)c1)c1ccccc1 [Example 58, 2-(1-{2-[methyl(phenyl)amino]ethyl}-1H-imidazol-4-yl)pyridine-4-carboxylic acid] | ≥ 7.00 | ≥ 7.00 | 6.00 to 7.00 | – | ≥ 7.00 | 6.00 to 7.00
5 | Cn1cnc(-c2cc(C(=O)O)ccn2)c1-c1ccc2cc[nH]c2c1 [Example 22, 2-[5-(1H-indol-6-yl)-1-methyl-1H-imidazol-4-yl]pyridine-4-carboxylic acid] | ≥ 7.00 | ≥ 7.00 | 6.00 to 7.00 | < 5.00 | ≥ 7.00 | –
6 | O=C(O)c1ccnc(-c2cn(CCN3CCCC3=O)cn2)c1 [Example 60, 2-{1-[2-(2-oxopyrrolidin-1-yl)ethyl]-1H-imidazol-4-yl}pyridine-4-carboxylic acid] | ≥ 7.00 | ≥ 7.00 | 6.00 to 7.00 | – | ≥ 7.00 | ≥ 7.00
7 | COc1ccc(-c2c(-c3cc(C(=O)O)ccn3)ncn2C)cc1 [Example 12, 2-[5-(4-methoxyphenyl)-1-methyl-1H-imidazol-4-yl]pyridine-4-carboxylic acid] | – | – | – | 5.00 to 6.00 | – | –
8 | Cn1cnc(-c2cc(C(=O)O)ccn2)c1-c1ccc(N2CCCC2)cc1 [Example 18, 2-{1-methyl-5-[4-(pyrrolidin-1-yl)phenyl]-1H-imidazol-4-yl}pyridine-4-carboxylic acid] | ≥ 7.00 | – | 6.00 to 7.00 | 5.00 to 6.00 | ≥ 7.00 | –
9 | CN1CCC(Cn2cnc(-c3cc(C(=O)O)ccn3)c2)CC1 [Example 50, 2-{1-[(1-methylpiperidin-4-yl)methyl]-1H-imidazol-4-yl}pyridine-4-carboxylic acid] | ≥ 7.00 | 5.00 to 6.00 | ≥ 7.00 | – | ≥ 7.00 | ≥ 7.00
10 | CN(CCn1cnc(-c2cc(C(=O)O)ccn2)c1)Cc1ccc(F)cc1 [Example 38, 2-[1-[2-[(4-fluorophenyl)methyl-methylamino]ethyl]imidazol-4-yl]pyridine-4-carboxylic acid] | ≥ 7.00 | ≥ 7.00 | ≥ 7.00 | – | ≥ 7.00 | ≥ 7.00
11 | CN(CCn1cnc(-c2cc(C(=O)O)ccn2)c1)CC1CC1 [Example 59, 2-(1-{2-[(cyclopropylmethyl)(methyl)amino]ethyl}-1H-imidazol-4-yl)pyridine-4-carboxylic acid] | ≥ 7.00 | 6.00 to 7.00 | ≥ 7.00 | – | ≥ 7.00 | ≥ 7.00
12 | CN(C)CCn1cnc(-c2cc(C(=O)O)ccn2)c1 [Example 40, 2-{1-[2-(dimethylamino)ethyl]-1H-imidazol-4-yl}pyridine-4-carboxylic acid] | ≥ 7.00 | – | ≥ 7.00 | 5.00 to 6.00 | ≥ 7.00 | –

Continued, values first:

Row | pIC50 (Jarid1B) | pIC50 (FBXL10) | pIC50 (JMJD2C) | pIC50 (KDM5A and KDM5B) | pIC50 (Jarid1A) | pIC50 (JMJD2A) | Compound
13 | ≥ 7.00 | ≥ 7.00 | 5.00 to 6.00 | – | ≥ 7.00 | 6.00 to 7.00 | O=C(O)c1ccnc(-c2cn(C3CCc4ccc(F)cc43)cn2)c1 (stereo not shown) [Example 109, 2-[1-(6-fluoro-2,3-dihydro-1H-inden-1-yl)imidazol-4-yl]pyridine-4-carboxylic acid]
14 | ≥ 7.00 | ≥ 7.00 | ≥ 7.00 | – | ≥ 7.00 | ≥ 7.00 | Cc1cccc(CN(C)CCn2cnc(-c3cc(C(=O)O)ccn3)c2)c1 [Example 66, 2-[1-[2-[methyl-[(3-methylphenyl)methyl]amino]ethyl]imidazol-4-yl]pyridine-4-carboxylic acid]
15 | ≥ 7.00 | ≥ 7.00 | 6.00 to 7.00 | < 5.00 | ≥ 7.00 | – | O=C(O)c1ccnc(-c2cn(Cc3cccc(F)c3)cn2)c1 [Example 104, 2-[1-[(3-fluorophenyl)methyl]imidazol-4-yl]pyridine-4-carboxylic]
16 | ≥ 7.00 | ≥ 7.00 | 6.00 to 7.00 | – | ≥ 7.00 | 6.00 to 7.00 | CC(C)C(c1ccccc1)n1cnc(-c2cc(C(=O)O)ccn2)c1 (stereo not shown) [Example 108, 2-[1-(2-methyl-1-phenylpropyl)imidazol-4-yl]pyridine-4-carboxylic acid]
17 | ≥ 7.00 | ≥ 7.00 | ≥ 7.00 | 5.00 to 6.00 | ≥ 7.00 | – | O=C(O)c1ccnc(-c2cn(CCNCC3CCC(F)(F)CC3)cn2)c1 [Example 72, 2-[1-[2-[(4,4-difluorocyclohexyl)methylamino]ethyl]imidazol-4-yl]pyridine-4-carboxylic acid]
18 | ≥ 7.00 | ≥ 7.00 | 5.00 to 6.00 | – | 6.00 to 7.00 | < 5.00 | CCC(c1ccccc1)n1cnc(-c2cc(-c3nn[nH]n3)ccn2)c1 (stereo not shown) [Example 144, 2-[1-(1-phenylpropyl)imidazol-4-yl]-4-(2H-tetrazol-5-yl)pyridine]
19 | ≥ 7.00 | ≥ 7.00 | ≥ 7.00 | 5.00 to 6.00 | ≥ 7.00 | – | O=C(O)c1ccnc(-c2cn(CCc3ccc(F)cc3)cn2)c1 [Example 92, 2-[1-[2-(4-fluorophenyl)ethyl]imidazol-4-yl]pyridine-4-carboxylic acid]
20 | ≥ 7.00 | ≥ 7.00 | ≥ 7.00 | – | ≥ 7.00 | ≥ 7.00 | CCN(CCn1cnc(-c2cc(C(=O)O)ccn2)c1)Cc1ccc(F)cc1 [Example 70, 2-[1-[2-[ethyl-[(4-fluorophenyl)methyl]amino]ethyl]imidazol-4-yl]pyridine-4-carboxylic acid]
21 | ≥ 7.00 | ≥ 7.00 | 5.00 to 6.00 | – | 6.00 to 7.00 | < 5.00 | Clc1ccccc1Cn1cnc(-c2cc(-c3nn[nH]n3)ccn2)c1 [Example 129, 2-[1-[(2-chlorophenyl)methyl]imidazol-4-yl]-4-(2H-tetrazol-5-yl)pyridine]
22 | ≥ 7.00 | ≥ 7.00 | 6.00 to 7.00 | – | ≥ 7.00 | 6.00 to 7.00 | O=C(O)c1ccnc(-c2cn(CCc3cccc4ccccc34)cn2)c1 [Example 112, 2-[1-(2-naphthalen-1-ylethyl)imidazol-4-yl]pyridine-4-carboxylic acid]
23 | ≥ 7.00 | ≥ 7.00 | 6.00 to 7.00 | – | ≥ 7.00 | ≥ 7.00 | O=C(O)c1ccnc(-c2cn(CC3CCCc4ccccc43)cn2)c1 (stereo not shown) [Example 116, 2-[1-(1,2,3,4-tetrahydronaphthalen-1-ylmethyl)imidazol-4-yl]pyridine-4-carboxylic acid]
24 | ≥ 7.00 | ≥ 7.00 | 6.00 to 7.00 | – | ≥ 7.00 | ≥ 7.00 | O=C(O)c1ccnc(-c2cn(CCN3CCCc4cc(F)ccc43)cn2)c1 [Example 90, 2-[1-[2-(6-fluoro-3,4-dihydro-2H-quinolin-1-yl)ethyl]imidazol-4-yl]pyridine-4-carboxylic acid]
25 | 6.00 to 7.00 | ≥ 7.00 | 5.00 to 6.00 | – | 6.00 to 7.00 | < 5.00 | Clc1ccccc1CCn1cnc(-c2cc(-c3nn[nH]n3)ccn2)c1 [Example 141, 2-[1-[2-(2-chlorophenyl)ethyl]imidazol-4-yl]-4-(2H-tetrazol-5-yl)pyridine]
26 | ≥ 7.00 | ≥ 7.00 | 6.00 to 7.00 | – | ≥ 7.00 | ≥ 7.00 | CCC(c1ccccc1)n1cnc(-c2cc(C(=O)O)ccn2)c1 (stereo not shown) [Example 107, 2-[1-(1-phenylpropyl)imidazol-4-yl]pyridine-4-carboxylic acid]
27 | ≥ 7.00 | ≥ 7.00 | 5.00 to 6.00 | – | ≥ 7.00 | 5.00 to 6.00 | O=C(O)c1ccnc(-c2cn(Cc3cccc(-c4ccccc4)c3)cn2)c1 [Example 111, 2-[1-[(3-phenylphenyl)methyl]imidazol-4-yl]pyridine-4-carboxylic acid]
28 | ≥ 7.00 | ≥ 7.00 | 5.00 to 6.00 | – | 6.00 to 7.00 | < 5.00 | FC(F)(F)c1ccccc1CCn1cnc(-c2cc(-c3nn[nH]n3)ccn2)c1 [Example 140, 4-(2H-tetrazol-5-yl)-2-[1-[2-[2-(trifluoromethyl)phenyl]ethyl]imidazol-4-yl]pyridine]
29 | ≥ 7.00 | ≥ 7.00 | 6.00 to 7.00 | – | ≥ 7.00 | 6.00 to 7.00 | O=C(O)c1ccnc(-c2cn(CCN3CCCc4cc(Cl)ccc43)cn2)c1 [Example 89, 2-[1-[2-(6-chloro-3,4-dihydro-2H-quinolin-1-yl)ethyl]imidazol-4-yl]pyridine-4-carboxylic acid]
